Experiments:
[1] = molecular target: T1, glucocorticoid receptor (Homo sapiens, UniProt P04150); experiment: Assay for transactivation activity of the glucocorticoid agonists (MMTV-LTR renilla luciferase reporter); assay type: cell-based; conditions: A549, A549 cells, 6 hour at 37° C., read-out: maximal response relative to Dexamethasone (100%), transactivation
T1 sequence (P04150 1-777): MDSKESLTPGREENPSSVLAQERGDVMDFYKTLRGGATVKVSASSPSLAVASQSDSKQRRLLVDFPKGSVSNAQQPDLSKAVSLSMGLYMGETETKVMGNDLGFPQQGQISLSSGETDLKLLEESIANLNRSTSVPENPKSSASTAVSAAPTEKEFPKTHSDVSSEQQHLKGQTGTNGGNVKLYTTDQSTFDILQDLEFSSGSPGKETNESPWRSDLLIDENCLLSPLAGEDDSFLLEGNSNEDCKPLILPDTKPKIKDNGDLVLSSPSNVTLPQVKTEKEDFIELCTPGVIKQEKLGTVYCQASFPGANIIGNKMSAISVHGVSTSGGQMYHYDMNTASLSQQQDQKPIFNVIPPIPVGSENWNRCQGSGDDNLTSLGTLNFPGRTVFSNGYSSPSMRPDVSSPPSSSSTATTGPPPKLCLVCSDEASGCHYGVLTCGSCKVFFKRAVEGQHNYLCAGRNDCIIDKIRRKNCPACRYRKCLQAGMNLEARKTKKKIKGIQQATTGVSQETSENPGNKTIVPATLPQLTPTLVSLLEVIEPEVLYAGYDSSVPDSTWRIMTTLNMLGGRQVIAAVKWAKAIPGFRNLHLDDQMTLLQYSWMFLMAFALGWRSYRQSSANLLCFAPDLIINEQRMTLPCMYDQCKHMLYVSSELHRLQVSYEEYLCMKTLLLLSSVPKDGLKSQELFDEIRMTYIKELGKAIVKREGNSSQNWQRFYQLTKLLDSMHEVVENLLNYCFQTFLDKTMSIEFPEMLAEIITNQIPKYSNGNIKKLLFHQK
Procedure: Assay for Transactivation Activity of the Glucocorticoid Agonists
The functional assay based on that described by R. J. H. Austin et al., Eur Resp J. (2002), 20, 1386-1392 measures the ability of compounds to directly transactivate gene expression. A549 cells stably transfected with a reporter gene containing the glucocorticoid responsive region of the mouse mammary tumour virus long terminal repeat (MMTV-LTR) coupled to renilla luciferase were treated with test compounds at appropriate doses for 6 hour at 37° C. The amount of luciferase activity present within the cells is then determined by measuring the light emitted following incubation with a suitable substrate. Dose response curves were constructed from which EC50 values were estimated and from which maximal responses are calculated relative to Dexamethasone (100%).

[2] = molecular target: T1, glucocorticoid receptor; experiment: Assay for transrepression activity of the glucocorticoid agonists (NF-κB/ELAM-sPAP reporter, TNF stimulated); assay type: cell-based; conditions: A549 cells, NF-κB responsive ELAM promoter-sPAP reporter; compound 1 hour, then TNF 10 ng/ml for 16 hours; read-out: pEC50 transrepression (converted)
Procedure: Assay for Transrepression Activity of the Glucocorticoid Agonists
The functional assay based on that described by K. P. Ray et al., Biochem J. (1997), 328, 707-715 provides a measure of transrepressive activity of a glucocorticoid agonist. A549 cells stably transfected with a reporter gene containing the NF-κB responsive elements from the ELAM gene promoter coupled to sPAP (secreted alkaline phosphatase) are treated with test compounds at appropriate doses for 1 hour at 37° C. The cells are then stimulated with tumour necrosis factor (TNF, 10 ng/ml) for 16 hours, at which time the amount of alkaline phosphatase produced is measured by a standard colourimetric assay. Dose response curves were constructed from which EC50 values were estimated.

Compound `CC[C@H]1CC[C@H](OC(=O)O[C@]2(C(=O)OCC#N)[C@H](C)C[C@H]3[C@@H]4C[C@H](F)C5=CC(=O)C=C[C@]5(C)[C@@]4(F)[C@@H](O)C[C@@]32C)CC1` (relative stereo) [Example 19, Cyanomethyl (6α,11β,16α,17α)-17-({[(trans-4-ethylcyclohexyl)oxy]carbonyl}oxy)-6,9-difluoro-11-hydroxy-16-methyl-3-oxoandrosta-1,4-diene-17-carboxylate] has an Emax [1] of under 40%.

`CC[C@H]1CC[C@@H](OC(=O)O[C@]2(C(=O)OCC#N)[C@H](C)C[C@H]3[C@@H]4C[C@H](F)C5=CC(=O)C=C[C@]5(C)[C@@]4(F)[C@@H](O)C[C@@]32C)CC1` (relative stereo) [Example 20, Cyanomethyl (6α,11β,16α,17α)-17-({[(cis-4-ethylcyclohexyl)oxy]carbonyl}oxy)-6,9-difluoro-11-hydroxy-16-methyl-3-oxoandrosta-1,4-diene-17-carboxylate] showed an Emax [1] of under 40%.

Work on `CC(C)C1CCC(OC(=O)O[C@]2(C(=O)OCC#N)[C@H](C)C[C@H]3[C@@H]4C[C@H](F)C5=CC(=O)C=C[C@]5(C)[C@@]4(F)[C@@H](O)C[C@@]32C)CC1` (single isomer, unassigned) [Example 11B, Cyanomethyl (6α,11β,16α,17α)-6,9-difluoro-11-hydroxy-16-methyl-17-[({[4-(1-methylethyl)cyclohexyl]oxy}carbonyl)oxy]-3-oxoandrosta-1,4-diene-17-carboxylate] yielded an EC50 [2] of under 0.316 nM.

Work on `C[C@@H]1C[C@H]2[C@@H]3C[C@H](F)C4=CC(=O)C=C[C@]4(C)[C@@]3(F)[C@@H](O)C[C@]2(C)[C@@]1(OC(=O)OC(C)(C)C)C(=O)OCC#N` [Example 1, Cyanomethyl (6α,11β,16α,17α)-17-({[(1,1-dimethylethyl)oxy]carbonyl}oxy)-6,9-difluoro-11-hydroxy-16-methyl-3-oxoandrosta-1,4-diene-17-carboxylate] yielded an EC50 [2] of under 0.1 nM.

`CCC(C)(C)OC(=O)O[C@]1(C(=O)OCC#N)[C@H](C)C[C@H]2[C@@H]3C[C@H](F)C4=CC(=O)C=C[C@]4(C)[C@@]3(F)[C@@H](O)C[C@@]21C` [Example 2, Cyanomethyl (6α,11β,16α,17α)-17-({[(1,1-dimethylpropyl)oxy]carbonyl}oxy)-6,9-difluoro-11-hydroxy-16-methyl-3-oxoandrosta-1,4-diene-17-carboxylate] was tested, and the EC50 [2] was under 0.1 nM.

`CCC(CC)OC(=O)O[C@]1(C(=O)OCC#N)[C@H](C)C[C@H]2[C@@H]3C[C@H](F)C4=CC(=O)C=C[C@]4(C)[C@@]3(F)[C@@H](O)C[C@@]21C` [Example 3, Cyanomethyl (6α,11β,16α,17α)-17-({[(1-ethylpropyl)oxy]carbonyl}oxy)-6,9-difluoro-11-hydroxy-16-methyl-3-oxoandrosta-1,4-diene-17-carboxylate] was tested, and the EC50 [2] was under 0.316 nM.

Work on `CC(C)C(OC(=O)O[C@]1(C(=O)OCC#N)[C@H](C)C[C@H]2[C@@H]3C[C@H](F)C4=CC(=O)C=C[C@]4(C)[C@@]3(F)[C@@H](O)C[C@@]21C)C(C)C` [Example 4, Cyanomethyl (6α,11β,16α,17α)-6,9-difluoro-11-hydroxy-16-methyl-17-[({[2-methyl-1-(1-methylethyl)propyl]oxy}carbonyl)oxy]-3-oxoandrosta-1,4-diene-17-carboxylate] yielded an EC50 [2] of under 0.316 nM.

In the case of `CCC(CC)COC(=O)O[C@]1(C(=O)OCC#N)[C@H](C)C[C@H]2[C@@H]3C[C@H](F)C4=CC(=O)C=C[C@]4(C)[C@@]3(F)[C@@H](O)C[C@@]21C` [Example 5, Cyanomethyl (6α,11β,16α,17α)-17-({[(2-ethylbutyl)oxy]carbonyl}oxy)-6,9-difluoro-11-hydroxy-16-methyl-3-oxoandrosta-1,4-diene-17-carboxylate], the Emax [1] is reported as under 40% and the EC50 [2] is reported as under 0.316 nM.

`C[C@@H]1C[C@H]2[C@@H]3C[C@H](F)C4=CC(=O)C=C[C@]4(C)[C@@]3(F)[C@@H](O)C[C@]2(C)[C@@]1(OC(=O)OCC(C)(C)C)C(=O)OCC#N` [Example 6, Cyanomethyl (6α,11β,16α,17α)-17-({[(2,2-dimethylpropyl)oxy]carbonyl}oxy)-6,9-difluoro-11-hydroxy-16-methyl-3-oxoandrosta-1,4-diene-17-carboxylate] showed an EC50 [2] of under 0.316 nM.

With `CCC(OC(=O)O[C@]1(C(=O)OCC#N)[C@H](C)C[C@H]2[C@@H]3C[C@H](F)C4=CC(=O)C=C[C@]4(C)[C@@]3(F)[C@@H](O)C[C@@]21C)C(C)C` (stereo partly drawn) [Example 7, Cyanomethyl (6α,11β,16α,17α)-17-({[(1-ethyl-2-methylpropyl)oxy]carbonyl}oxy)-6,9-difluoro-11-hydroxy-16-methyl-3-oxoandrosta-1,4-diene-17-carboxylate] the Emax [1] was under 40% and the EC50 [2] was under 0.316 nM.

In the case of `CC(C)C(C)OC(=O)O[C@]1(C(=O)OCC#N)[C@H](C)C[C@H]2[C@@H]3C[C@H](F)C4=CC(=O)C=C[C@]4(C)[C@@]3(F)[C@@H](O)C[C@@]21C` (stereo partly drawn) [Example 8, Cyanomethyl (6α,11β,16α,17α)-17-({[(1,2-dimethylpropyl)oxy]carbonyl}oxy)-6,9-difluoro-11-hydroxy-16-methyl-3-oxoandrosta-1,4-diene-17-carboxylate], the Emax [1] is reported as under 40% and the EC50 [2] is reported as under 0.316 nM.

In the case of `C[C@@H]1C[C@H]2[C@@H]3C[C@H](F)C4=CC(=O)C=C[C@]4(C)[C@@]3(F)[C@@H](O)C[C@]2(C)[C@@]1(OC(=O)OC1CCCC1)C(=O)OCC#N` [Example 9, Cyanomethyl (6α,11β,16α,17α)-17-{[(cyclopentyloxy)carbonyl]oxy}-6,9-difluoro-11-hydroxy-16-methyl-3-oxoandrosta-1,4-diene-17-carboxylate], the Emax [1] is reported as under 40% and the EC50 [2] is reported as under 0.316 nM.

For `CCCC(CCC)OC(=O)O[C@]1(C(=O)OCC#N)[C@H](C)C[C@H]2[C@@H]3C[C@H](F)C4=CC(=O)C=C[C@]4(C)[C@@]3(F)[C@@H](O)C[C@@]21C` [Example 21, Cyanomethyl (6α,11β16α,17α)-6,9-difluoro-11-hydroxy-16-methyl-3-oxo-17-({[(1-propylbutyl)oxy]carbonyl}oxy)androsta-1,4-diene-17-carboxylate], the Emax [1] was under 40%.

`CC1CC2C3CC(F)C4=CC(=O)C=CC4(C)C3(F)C(O)CC2(C)C1(OC(=O)OC1CC2CCC1(C)C2(C)C)C(=O)OCC#N` (stereo not drawn) [Example 22, Cyanomethyl (6α,11β,16α,17α)-6,9-difluoro-11-hydroxy-16-methyl-3-oxo-17-[({[(1RS,2RS,4RS)-1,7,7-trimethylbicyclo[2.2.1]hept-2-yl]oxy}carbonyl)oxy]androsta-1,4-diene-17-carboxylate] showed an Emax [1] of under 40%.

For `CC(OC(=O)O[C@]1(C(=O)OCC#N)[C@H](C)C[C@H]2[C@@H]3C[C@H](F)C4=CC(=O)C=C[C@]4(C)[C@@]3(F)[C@@H](O)C[C@@]21C)C(C)(C)C` (stereo partly drawn) [Example 23, Cyanomethyl (6α,11β,16α,17α)-6,9-difluoro-11-hydroxy-16-methyl-3-oxo-17-({[(1,2,2-trimethylpropyl)oxy]carbonyl}oxy)androsta-1,4-diene-17-carboxylate], the Emax [1] was under 40%.

`CCCC(OC(=O)O[C@]1(C(=O)OCC#N)[C@H](C)C[C@H]2[C@@H]3C[C@H](F)C4=CC(=O)C=C[C@]4(C)[C@@]3(F)[C@@H](O)C[C@@]21C)C(C)C` (stereo partly drawn) [Example 24, Cyanomethyl (6α,11β,16α,17α)-6,9-difluoro-11-hydroxy-16-methyl-17-[({[1-(1-methylethyl)butyl]oxy}carbonyl)oxy]-3-oxoandrosta-1,4-diene-17-carboxylate] showed an Emax [1] of under 40%.
